{"source": "patent US4665052A", "about": "“Renin inhibitors containing homophe^8 and a C-terminal amide cycle” (Merck & Co., Inc., priority 1984, dated 1987)", "origin": "cited, not measured here", "key": {"hog renin": {"tested_on": "hog renin", "details": "after injection of hog renin into nephrectomized rats; Gross et al. 1971"}, "[1]": {"tested_on": "aspartyl proteases such as pepsin, cathepsin D, and renin", "details": "selectivity"}}}
{"substance": "pepstatin", "values": [{"measurement": "blood pressure in vivo", "setting": "hog renin", "result": "reduce blood pressure in vivo"}, {"measurement": "inhibition of other acid proteases in addition to renin", "setting": "[1]", "result": "inhibition of a variety of other acid proteases in addition to renin"}]}
